From US20220177456A1, “COMPOUNDS, COMPOSITIONS AND METHODS” (Denali Therapeutics Inc., priority 2019, published 2022) come the findings set out here.

The experiment concerns ISR pathway (ATF4 translation), H4 ATF4-NLuc (clone 17) cell line. Description: ATF4 Nano Luciferase reporter integrated stress response (ISR) assay in H4 ATF4-NLuc cells. Format: cell-based. As to conditions: human H4 neuroglioma ATF4-NLuc cells; compound 30 minutes, then 50 μm sodium arsenite for 6 hours; luminescence readout. The text has this: Cellular stress leads to activation of the integrated stress response pathway through one of four eukaryotic initiation factor 2α kinases and halts global translation, while allowing for the translation of select transcripts like ATF4 (activating transcription factor 4) that are important for the response to cellular stress. During normal conditions, small open reading frames (ORFs) in the 5′ UTR of ATF4 occupy the ribosome and prevent translation of the coding sequence of ATF4. During stress conditions however, the ribosome scans past these upstream ORFs and preferentially begins translation at the coding sequence of ATF4. In this way, the translation, and thus protein level of ATF4 is a readout of ISR pathway activation. Thus, a fusion of the uORFs and the beginning of the coding sequence of ATF to a common cellular reporter like nano-luciferase allows for a sensitive and high-throughput readout of ISR pathway activity.
Compounds as provided herein were tested in the following assay. The ATF4 Nano Luciferase reporter was constructed by fusing the human full length 5′ untranslated region (5′-UTR) and a small portion of the coding sequence of the ATF4 gene upstream of the Nano Luciferase (NLuc) coding sequence lacking it's start codon. Specifically, nucleotides +1 through +364 (relative to the transcriptional start site) of ATF4 transcript variant 2 (NCBI NM_182810.2) flanked 5′ by EcoRI and 3′ by BamHI restriction enzyme sites were synthesized and cloned into the EcoRI/BamHI cloning sites of pLVX-EF1a-IRES-Puro lentivirus vector (Clontech). Lentiviral particles were produced with Lenti-X single shots (VSV-G, Clontech) according to the manufacturer's instructions and used to transduce a human H4 neuroglioma cell line (ATCC HT1B-148). H4 cells were selected with 1.25 μg/mL Puromycin, and clonal cell lines generated by limiting dilution. We utilized this cell line to generate an integrated stress response (ISR) assay to evaluate the activity of ISR pathway inhibitors via luminescence readout. The H4 ATF4-NLuc (clone 17) cell line is plated at a density of […] cells in 96-well or 384-well respectively in DMEM +10% fetal bovine serum. 24-hours later test compounds diluted in dimethyl sulfoxide (DMSO) are added for 30 minutes at 37° C., followed by ISR pathway activation with 50 μm sodium arsenite aqueous solution for 6 additional hours. Nano Glo luciferase reagent (N1150, Promega) is added according to manufacturer instructions and the luminescence signal (corresponding to the level of ATF4 translation and thus ISR pathway activation) is read with a standard plate reader with luminescence detection capabilities.
In the tables below, activity of the tested compounds is provided, and in Table 3 as follows: +++=0.003 μM<IC50<1 μM; ++=IC50 1-10 μM; +=IC50>10 μM.
Usually IC50 stands for the concentration at which inhibition is half-maximal. Read a low IC50 as greater potency. Compound `O=C(COc1ccc(C(F)(F)F)cc1)N[C@@H]1CC[C@@H](C(=O)NCc2ccc(C(F)(F)F)cc2)OC1` [Example 1, (2S,5R)-5-[[2-[4-(trifluoromethyl)phenoxy]acetyl]amino]-N-[[4-(trifluoromethyl)phenyl]methyl]tetrahydropyran-2-carboxamide] displayed an IC50 of 3 to 1000 nM.

Take `O=C(COc1ccc(C(F)(F)F)cc1)N[C@@H]1CC[C@@H](C(=O)Nc2ccc3cc(Cl)ccc3n2)OC1` [Example 2, (2S,5R)—N-(6-chloro-2-quinolyl)-5-[[2-[4-(trifluoromethyl)phenoxy]acetyl]amino]tetrahydropyran-2-carboxamide]: the IC50 lay in the range of 3 to 1000 nM.

In turn, `CC1CN(C(=O)[C@@H]2CC[C@@H](NC(=O)COc3ccc(Cl)cc3)CO2)Cc2ccc(Cl)cc21` (stereo partly drawn) [Example 3, 2-(4-chlorophenoxy)-N-[(3R,6S)-6-(6-chloro-4-methyl-3,4-dihydro-1H-isoquinoline-2-carbonyl)tetrahydropyran-3-yl]acetamide] registered an IC50 of 3 to 1000 nM. With `O=C(COc1ccc(C(F)(F)F)cc1)N[C@@H]1CC[C@@H](C(=O)NCCCOC(F)(F)F)OC1` [Example 4, (2S,5R)-N-[3-(trifluoromethoxy)propyl]-5-[[2-[4-(trifluoromethyl)phenoxy]acetyl]amino]tetrahydropyran-2-carboxamide] the figure was 3 to 1000 nM. Consider `O=C(COc1ccc(C(F)(F)F)cc1)N[C@@H]1CC[C@@H](C(=O)N2CCc3cc(C(F)(F)F)ccc3C2)OC1` [Example 5, N-[(3R,6S)-6-[6-(trifluoromethyl)-3,4-dihydro-1H-isoquinoline-2-carbonyl]tetrahydropyran-3-yl]-2-[4-(trifluoromethyl)phenoxy] acetamide], for which the IC50 fell in the range of 3 to 1000 nM. `CC1c2ccc(Cl)cc2CCN1C(=O)[C@@H]1CC[C@@H](NC(=O)COc2ccc(Cl)cc2)CO1` (stereo partly drawn) [Example 6, 2-(4-chlorophenoxy)-N-[(3R,6S)-6-(6-chloro-1-methyl-3,4-dihydro-1H-isoquinoline-2-carbonyl)tetrahydropyran-3-yl]acetamide] returned an IC50 of 3 to 1000 nM. The value for `O=C(COc1ccc(C(F)(F)F)cc1)N[C@@H]1CC[C@@H](C(=O)Nc2ccc3ccc(Cl)cc3n2)OC1` [Example 7, (2S,5R)-N-(7-chloro-2-quinolyl)-5-[[2-[4-(trifluoromethyl)phenoxy]acetyl]amino]tetrahydropyran-2-carboxamide] was 3 to 1000 nM; that for `O=C(COc1ccc(C(F)(F)F)cc1)N[C@@H]1CC[C@@H](C(=O)N2C[C@@H]3[C@H](C2)[C@H]3C(F)(F)F)OC1` [Example 8, N-[(3R,6S)-6-[(1r,5s)-6-(trifluoromethyl)-3-azabicyclo[3.1.0]hexane-3-carbonyl]tetrahydropyran-3-yl]-2-[4-(trifluoromethyl)phenoxy]acetamide] was 1000 to 10000 nM.

For `O=C(COc1ccc(C(F)(F)F)cc1)N[C@@H]1CC[C@@H](C(=O)Nc2cc3ccc(Cl)cc3cn2)OC1` [Example 9, (2S,5R)-N-(7-chloro-3-isoquinolyl)-5-[[2-[4-(trifluoromethyl)phenoxy]acetyl]amino]tetrahydropyran-2-carboxamide], the IC50 fell in the range of 3 to 1000 nM. With `O=C(COc1ccc(C(F)(F)F)cc1)N[C@@H]1CC[C@@H](C(=O)N2CCc3nc(C(F)(F)F)ccc3C2)OC1` [Example 10, N-[(3R,6S)-6-[2-(trifluoromethyl)-7,8-dihydro-5H-1,6-naphthyridine-6-carbonyl]tetrahydropyran-3-yl]-2-[4-(trifluoromethyl)phenoxy] acetamide] the figure was 3 to 1000 nM; with `O=C(COc1ccc(C(F)(F)F)cc1)N[C@@H]1CC[C@@H](C(=O)N2Cc3ccc(C(F)(F)F)cc3C2)OC1` [Example 11, N-[(3R,6S)-6-[5-(trifluoromethyl)isoindoline-2-carbonyl]tetrahydropyran-3-yl]-2-[4-(trifluoromethyl)phenoxy] acetamide], 3 to 1000 nM. With `O=C(N[C@@H]1CC[C@@H](C(=O)N[C@H]2C[C@@H](COC(F)(F)F)C2)OC1)c1ccc2cc(C(F)(F)F)ccc2n1` [Example 12, N-[(3R,6S)-6-[[3-cis-(trifluoromethoxymethyl)cyclobutyl]carbamoyl]tetrahydropyran-3-yl]-6-(trifluoromethyl) quinoline-2-carboxamide] the figure was 3 to 1000 nM. `O=C(COc1ccc(C(F)(F)F)cc1)N[C@@H]1CC[C@@H](C(=O)N[C@H]2C[C@@H](COC(F)(F)F)C2)OC1` [Example 13, (2S,5R)-N-[3-cis-(trifluoromethoxymethyl)cyclobutyl]-5-[[2-[4-(trifluoromethyl)phenoxy]acetyl]amino]tetrahydropyran-2-carboxamide] came in with an IC50 of 3 to 1000 nM. With `O=C(COc1ccc(Cl)cc1)N[C@@H]1CC[C@@H](C(=O)NCc2cccc(C(F)(F)F)c2)OC1` [Example 14, (2S,5R)-5-[[2-(4-chlorophenoxy)acetyl]amino]-N-[[3-(trifluoromethyl)phenyl]methyl] tetrahydropyran-2-carboxamide] the figure was 3 to 1000 nM; with `O=C(COc1ccc(Cl)cc1)N[C@@H]1CC[C@@H](C(=O)NCc2cccc(Cl)c2)OC1` [Example 15, (2S,5R)-5-[[2-(4-chlorophenoxy)acetyl]amino]-N-[(3-chlorophenyl)methyl] tetrahydropyran-2-carboxamide], 3 to 1000 nM. With `O=C(COc1ccc(Cl)cc1)N[C@@H]1CC[C@@H](C(=O)NCc2ccc(C(F)(F)F)nc2)OC1` [Example 16, (2S,5R)-5-[[2-(4-chlorophenoxy)acetyl]amino]-N-[[6-(trifluoromethyl)-3-pyridyl]methyl] tetrahydropyran-2-carboxamide] the figure was 3 to 1000 nM.

Turning to `C[C@@H](NC(=O)[C@@H]1CC[C@@H](NC(=O)COc2ccc(Cl)cc2)CO1)c1ccc(Cl)cc1` [Example 17, (2S,5R)-5-[[2-(4-chlorophenoxy)acetyl]amino]-N-[(1R)-1-(4-chlorophenyl)ethyl] tetrahydropyran-2-carboxamide], the IC50 lay within 3 to 1000 nM. `C[C@H](NC(=O)[C@@H]1CC[C@@H](NC(=O)COc2ccc(Cl)cc2)CO1)c1ccc(Cl)cc1` [Example 18, (2S,5R)-5-[[2-(4-chlorophenoxy)acetyl]amino]-N-[(1S)-1-(4-chlorophenyl)ethyl] tetrahydropyran-2-carboxamide] had an IC50 of 3 to 1000 nM.

Compound `CN(Cc1ccc(Cl)cc1)C(=O)[C@@H]1CC[C@@H](NC(=O)COc2ccc(Cl)cc2)CO1` [Example 19, (2S,5R)-5-[[2-(4-chlorophenoxy)acetyl]amino]-N-[(4-chlorophenyl)methyl]-N-methyl-tetrahydropyran-2-carboxamide] gave an IC50 of 3 to 1000 nM. In turn, `O=C(COc1ccc(Cl)cc1)N[C@@H]1CC[C@@H](C(=O)NCc2ccc(C(F)(F)F)cc2)OC1` [Example 20, (2S,5R)-5-[[2-(4-chlorophenoxy)acetyl]amino]-N-[[4-(trifluoromethyl)phenyl]methyl] tetrahydropyran-2-carboxamide] displayed an IC50 of 3 to 1000 nM.

Regarding `O=C(COc1ccc(Cl)cc1)N[C@@H]1CC[C@@H](C(=O)N2CCc3ccc(Cl)cc3C2)OC1` [Example 21, 2-(4-chlorophenoxy)-N-[(3R,6S)-6-(7-chloro-3,4-dihydro-1H-isoquinoline-2-carbonyl)tetrahydropyran-3-yl]acetamide], the IC50 lay in the range of 3 to 1000 nM. With `O=C(COc1ccc(Cl)cc1)N[C@@H]1CC[C@@H](C(=O)N2CCc3cc(Cl)ccc3C2)OC1` [Example 22, 2-(4-chlorophenoxy)-N-[(3R,6S)-6-(6-chloro-3,4-dihydro-1H-isoquinoline-2-carbonyl)tetrahydropyran-3-yl]acetamide] the figure was 3 to 1000 nM; with `O=C(NCC1CC(OC(F)(F)F)C1)[C@@H]1CC[C@@H](n2cnc(-c3ccc(Cl)c(F)c3)c2)CO1` (stereo partly drawn) [Example 23, (2S,5R)-5-[4-(4-chloro-3-fluoro-phenyl)imidazol-1-yl]-N-[[3-(trifluoromethoxy)cyclobutyl]methyl] tetrahydropyran-2-carboxamide], 3 to 1000 nM. With `O=C(N[C@H]1C[C@@H](COC(F)(F)F)C1)[C@@H]1CC[C@@H](n2cnc(-c3ccc(Cl)c(F)c3)c2)CO1` [Example 24, (2S,5R)-5-[4-(4-chloro-3-fluoro-phenyl)imidazol-1-yl]-N-[3-cis-(trifluoromethoxymethyl)cyclobutyl] tetrahydropyran-2-carboxamide] the figure was 3 to 1000 nM.
